Here are results for 1 substance from patent US20060014727A1, “Angiogenic compounds and uses thereof” (priority 2002, published 2006).

Experiment [1] deals with Human umbilical vein endothelial cells (HUVEC). Briefly: Endothelial sprouting assay. Type of experiment: cell-based. The following applies: HUVEC-coated beads in fibrin gels, 3 days, 0.625 μg/ml to 5 μg/ml, FIG. 1, averages from seven independent experiments. As for the experimental part:
Human umbilical vein endothelial cells (HUVEC) from normal umbilical cords were obtained by collagenase treatment. Cultures were propagated in MCDB medium supplemented with 15% FCS, heparin, and endothelial cell growth supplement. Endothelial sprouting was assessed by a modification of the method of Nehls and Drenckhahn ^14. Briefly, microcarrier beads coated with gelatin (Cytodex 3, Sigma) were seeded with HUVEC. When the cells reached confluence on the beads, equal numbers of […] beads were embedded in fibrin gels in 96-well plates. For preparation of fibrin gels, bovine fibrinogen was dissolved in MCDB at a concentration of 2.5 mg/ml. Aprotinin was added at a concentration of 0.05 mg/ml and the solution filtered through a 0.22 micron filter. Fibrinogen solution was supplemented with FGF-2 or sokotrasterol sulphate. As a control, fibrinogen solution without angiogenic factor was used. Following transfer of the fibrinogen solution to 96-well plates, HUVEC-coated beads were added at a density of 50 beads/well, and clotting was induced by the addition of thrombin (1.2 U/ml). […] After 3 days of incubation with daily medium changes, the number of capillary-like tubes formed was quantitated by counting the number of tube-like structures per microcarrier bead (sprouts/bead). Only sprouts greater than 150 μm in length and composed of at least 3 endothelial cells were counted. […]

For experiment [2], the system named is chick chorioallantoic membrane (CAM). Briefly: Chick chorioallantoic membrane (CAM) assay. The format is in vivo, Gallus gallus domesticus. The following applies: 20, 40 and 60 μg/ml, 20 μl on gelatin sponge, day 8 to day 10. As for the experimental part: Fertilized White Leghorn chicken eggs (Gallus gallus domesticus) were incubated at 37° C. under conditions of constant humidity. All chick eggs were handled according to institutional animal care procedures. On embryonic day 6, the developing chick chorioallantoic membrane (CAM) was separated from the shell by opening a small circular window at the broad end of the egg above the air sac. The embryos were checked for normal development, the window sealed with Parafilm, and the eggs returned to the incubator for 2 more days. On day 8, CAMs were treated with FGF-2 (30 ng/ml), sokotrasterol sulphate (20, 40 and 60 μg/ml) or PBS by loading 20 μl onto 2-mm^3 gelatin sponges (Gelfoam; Pharmacia Upjohn), which were then placed on the surface of the developing CAM. Eggs were resealed and returned to the incubator. On day 10, images of the CAMs were captured digitally using an Olympus SZX9 stereomicroscope (Olympus America) equipped with a Spot RT digital imaging system (Diagnostic Instruments). Neovascularization was quantitated for each CAM by counting the number of vessels that entered the sponge area, and dividing by the perimeter of the sponge (vessels/mm). Northern Eclipse version 6.0 (Empix Imaging Inc.) was used for manual vessel counting and mesh perimeter measurements.

Where [3] appears, read: listed as Sokotrasterol sulphate.

As for sokotrasterol sulphate, the entries for the “endothelial sprouting (number of tube-like structures per microcarrier bead, sprouts/bead)” value in experiment [1] and in experiment [1] (setting [3]) were “promoted endothelial sprouting in vitro in a concentration-dependent manner” and “promotes endothelial sprouting in vitro”, respectively. Further, the “neovascularization: number of vessels entering the gelatin sponge per mm of perimeter (vessels/mm)” value in experiment [2] is listed as “positive concentration-dependent effect”; in experiment [2] (setting [3]) it was “promotes angiogenesis”.
